Reference: article PMC7827406, “Structure–Activity Relationship (SAR) Study of Spautin-1 to Entail the Discovery of Novel NEK4 Inhibitors” (International Journal of Molecular Sciences, 2021)
Read-outs that look alike come from different tables or passages of the source.

Columns and labels:
Test in all cases: biochemical
Parameters in all cases: Eurofins KinaseProfiler full panel at Km ATP, residual kinase activity (%) relative to DMSO
[1] = molecular target: T1, TAO3(h) (Homo sapiens, UniProt Q9H2K8)
T1 construct: gene TAOK3
T1 sequence (Q9H2K8 1-898): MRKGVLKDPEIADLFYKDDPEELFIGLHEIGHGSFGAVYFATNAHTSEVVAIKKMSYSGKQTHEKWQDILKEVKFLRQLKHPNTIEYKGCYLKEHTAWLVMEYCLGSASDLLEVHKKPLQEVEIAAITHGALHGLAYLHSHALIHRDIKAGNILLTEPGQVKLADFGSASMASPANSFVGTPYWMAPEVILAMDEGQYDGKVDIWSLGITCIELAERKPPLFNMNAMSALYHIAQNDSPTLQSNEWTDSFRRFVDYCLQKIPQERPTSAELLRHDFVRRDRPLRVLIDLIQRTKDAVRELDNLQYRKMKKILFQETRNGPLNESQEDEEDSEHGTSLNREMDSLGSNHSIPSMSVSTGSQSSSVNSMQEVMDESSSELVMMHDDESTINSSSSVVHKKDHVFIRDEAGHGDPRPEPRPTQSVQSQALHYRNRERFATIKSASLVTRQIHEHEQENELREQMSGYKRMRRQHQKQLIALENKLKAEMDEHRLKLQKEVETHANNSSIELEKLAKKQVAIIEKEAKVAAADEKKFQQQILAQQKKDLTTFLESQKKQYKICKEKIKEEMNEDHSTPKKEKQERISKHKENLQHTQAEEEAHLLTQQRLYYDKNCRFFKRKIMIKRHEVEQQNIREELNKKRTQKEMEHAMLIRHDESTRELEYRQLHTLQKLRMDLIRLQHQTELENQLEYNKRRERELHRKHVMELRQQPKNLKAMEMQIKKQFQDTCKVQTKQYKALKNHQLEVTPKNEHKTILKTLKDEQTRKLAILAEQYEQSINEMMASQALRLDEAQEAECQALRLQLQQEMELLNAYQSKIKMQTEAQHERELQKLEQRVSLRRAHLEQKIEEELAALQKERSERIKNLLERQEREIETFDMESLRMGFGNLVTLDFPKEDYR
In short: (§1)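 Radiometric kinase activity assays were run with ATP at Km and compounds at 10 µM, and remaining activity (%) was reported. A separate competitive binding screen measured DNA-tagged kinase displaced from immobilized active-site ligands by qPCR, giving percent kinase still bound at 10 µM compound in DMSO.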

[2] = molecular target: EGFR(T790M)(h) (Homo sapiens, UniProt P00533, T790M)
Chain of EGFR(T790M)(h) (P00533 whole entry T790M): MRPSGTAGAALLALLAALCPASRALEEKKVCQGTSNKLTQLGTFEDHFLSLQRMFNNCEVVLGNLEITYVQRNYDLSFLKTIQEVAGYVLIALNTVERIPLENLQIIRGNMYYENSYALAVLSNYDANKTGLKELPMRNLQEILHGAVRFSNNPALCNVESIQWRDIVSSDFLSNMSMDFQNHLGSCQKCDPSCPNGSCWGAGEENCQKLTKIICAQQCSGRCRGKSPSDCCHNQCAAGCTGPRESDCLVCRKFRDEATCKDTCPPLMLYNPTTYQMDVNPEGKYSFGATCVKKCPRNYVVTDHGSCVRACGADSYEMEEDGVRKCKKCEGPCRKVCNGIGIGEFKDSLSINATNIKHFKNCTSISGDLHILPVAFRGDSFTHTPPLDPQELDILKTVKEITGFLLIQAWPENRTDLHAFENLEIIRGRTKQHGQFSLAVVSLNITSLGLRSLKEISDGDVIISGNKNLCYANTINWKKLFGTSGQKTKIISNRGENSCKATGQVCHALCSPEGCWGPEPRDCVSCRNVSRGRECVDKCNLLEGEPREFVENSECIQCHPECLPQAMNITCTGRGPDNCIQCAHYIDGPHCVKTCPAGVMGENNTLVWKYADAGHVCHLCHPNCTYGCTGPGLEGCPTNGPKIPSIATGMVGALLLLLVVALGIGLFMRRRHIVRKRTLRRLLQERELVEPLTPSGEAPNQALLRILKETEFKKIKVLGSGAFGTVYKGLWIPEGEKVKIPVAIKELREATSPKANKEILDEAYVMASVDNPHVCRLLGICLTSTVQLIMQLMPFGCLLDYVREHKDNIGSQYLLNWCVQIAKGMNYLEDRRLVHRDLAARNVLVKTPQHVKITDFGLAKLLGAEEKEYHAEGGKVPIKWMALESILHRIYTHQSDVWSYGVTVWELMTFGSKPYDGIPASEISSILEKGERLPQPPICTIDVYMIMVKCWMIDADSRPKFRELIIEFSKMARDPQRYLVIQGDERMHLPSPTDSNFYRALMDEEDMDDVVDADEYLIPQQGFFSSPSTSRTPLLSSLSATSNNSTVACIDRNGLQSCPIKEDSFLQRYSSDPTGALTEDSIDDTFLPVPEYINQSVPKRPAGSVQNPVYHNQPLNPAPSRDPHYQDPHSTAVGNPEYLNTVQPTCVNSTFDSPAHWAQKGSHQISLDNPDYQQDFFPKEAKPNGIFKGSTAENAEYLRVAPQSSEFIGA
In short: as §1

[3] = molecular target: Flt4(h) (Homo sapiens, UniProt P35916)
Chain of Flt4(h) (P35916 whole entry): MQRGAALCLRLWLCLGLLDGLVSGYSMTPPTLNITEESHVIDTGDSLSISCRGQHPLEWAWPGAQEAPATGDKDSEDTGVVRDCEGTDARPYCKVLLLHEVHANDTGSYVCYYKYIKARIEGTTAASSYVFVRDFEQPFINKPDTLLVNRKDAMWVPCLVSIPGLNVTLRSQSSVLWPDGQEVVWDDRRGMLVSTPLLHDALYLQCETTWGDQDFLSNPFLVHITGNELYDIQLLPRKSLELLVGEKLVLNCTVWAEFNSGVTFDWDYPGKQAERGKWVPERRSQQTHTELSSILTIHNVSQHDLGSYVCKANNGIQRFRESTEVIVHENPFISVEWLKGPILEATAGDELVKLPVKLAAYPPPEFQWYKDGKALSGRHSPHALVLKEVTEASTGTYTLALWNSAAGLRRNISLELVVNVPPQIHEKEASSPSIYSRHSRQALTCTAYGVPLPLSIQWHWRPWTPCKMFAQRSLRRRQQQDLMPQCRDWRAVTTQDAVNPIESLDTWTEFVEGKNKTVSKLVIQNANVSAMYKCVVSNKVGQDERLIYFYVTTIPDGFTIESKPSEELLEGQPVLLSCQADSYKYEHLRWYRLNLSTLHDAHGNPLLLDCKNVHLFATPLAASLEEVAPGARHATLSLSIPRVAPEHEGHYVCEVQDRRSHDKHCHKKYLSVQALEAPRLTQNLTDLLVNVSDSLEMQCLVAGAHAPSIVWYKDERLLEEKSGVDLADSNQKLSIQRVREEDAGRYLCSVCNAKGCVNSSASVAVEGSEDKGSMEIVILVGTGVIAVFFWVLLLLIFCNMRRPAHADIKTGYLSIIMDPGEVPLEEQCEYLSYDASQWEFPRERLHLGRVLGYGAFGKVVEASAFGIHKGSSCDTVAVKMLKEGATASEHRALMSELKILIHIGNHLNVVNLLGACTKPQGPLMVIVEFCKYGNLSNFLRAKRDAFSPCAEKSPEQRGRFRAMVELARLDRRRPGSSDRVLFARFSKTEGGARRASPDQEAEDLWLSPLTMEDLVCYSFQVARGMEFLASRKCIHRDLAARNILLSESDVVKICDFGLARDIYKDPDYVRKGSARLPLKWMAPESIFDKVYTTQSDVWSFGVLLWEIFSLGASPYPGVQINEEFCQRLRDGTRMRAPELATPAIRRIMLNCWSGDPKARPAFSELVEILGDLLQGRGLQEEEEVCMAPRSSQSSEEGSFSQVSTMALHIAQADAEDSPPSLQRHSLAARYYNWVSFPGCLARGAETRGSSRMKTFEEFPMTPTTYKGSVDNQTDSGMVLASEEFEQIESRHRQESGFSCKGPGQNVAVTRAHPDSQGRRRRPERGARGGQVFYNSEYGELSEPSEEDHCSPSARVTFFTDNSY
In short: as §1

[4] = molecular target: T2, ALK1(h) (Homo sapiens, UniProt P37023)
T2 construct: gene ACVRL1
T2 sequence (P37023 whole entry): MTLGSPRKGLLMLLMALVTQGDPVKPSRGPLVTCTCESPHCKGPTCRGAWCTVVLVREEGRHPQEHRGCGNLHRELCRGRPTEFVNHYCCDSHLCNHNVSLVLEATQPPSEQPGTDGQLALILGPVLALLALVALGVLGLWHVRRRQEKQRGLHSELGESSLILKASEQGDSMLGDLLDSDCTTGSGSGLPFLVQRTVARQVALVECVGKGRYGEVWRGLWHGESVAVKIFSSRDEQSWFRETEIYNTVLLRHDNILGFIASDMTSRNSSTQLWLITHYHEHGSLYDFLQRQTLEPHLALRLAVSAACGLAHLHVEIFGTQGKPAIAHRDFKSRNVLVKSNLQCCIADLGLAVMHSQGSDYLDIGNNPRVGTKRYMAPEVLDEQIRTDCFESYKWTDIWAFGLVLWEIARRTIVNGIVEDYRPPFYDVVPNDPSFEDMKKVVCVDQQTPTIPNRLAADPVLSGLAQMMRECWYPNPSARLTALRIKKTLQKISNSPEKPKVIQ
In short: as §1

[5] = molecular target: T3, GCK(h) (Homo sapiens, UniProt Q12851)
T3 construct: gene MAP4K2
T3 sequence (Q12851 1-820): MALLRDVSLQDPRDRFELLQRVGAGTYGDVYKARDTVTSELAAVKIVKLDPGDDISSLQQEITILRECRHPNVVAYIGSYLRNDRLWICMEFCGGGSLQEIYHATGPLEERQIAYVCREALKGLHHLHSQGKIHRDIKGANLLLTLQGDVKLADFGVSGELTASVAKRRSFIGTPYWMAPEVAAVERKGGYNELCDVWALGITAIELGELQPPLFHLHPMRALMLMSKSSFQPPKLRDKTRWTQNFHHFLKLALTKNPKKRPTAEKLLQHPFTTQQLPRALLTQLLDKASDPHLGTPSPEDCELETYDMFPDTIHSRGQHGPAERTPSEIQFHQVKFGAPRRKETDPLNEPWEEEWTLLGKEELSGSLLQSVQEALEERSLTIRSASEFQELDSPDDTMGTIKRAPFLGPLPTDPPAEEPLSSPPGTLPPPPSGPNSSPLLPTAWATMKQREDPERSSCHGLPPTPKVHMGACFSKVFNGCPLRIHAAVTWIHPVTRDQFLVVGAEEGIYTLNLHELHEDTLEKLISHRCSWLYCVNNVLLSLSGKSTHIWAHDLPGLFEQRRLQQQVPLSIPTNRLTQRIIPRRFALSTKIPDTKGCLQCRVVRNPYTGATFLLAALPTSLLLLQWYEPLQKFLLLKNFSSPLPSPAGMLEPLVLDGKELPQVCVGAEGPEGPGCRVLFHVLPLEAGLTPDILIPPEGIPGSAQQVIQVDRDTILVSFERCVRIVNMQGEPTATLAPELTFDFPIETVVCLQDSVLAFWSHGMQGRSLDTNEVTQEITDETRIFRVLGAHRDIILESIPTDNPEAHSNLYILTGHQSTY
In short: as §1

[6] = molecular target: T4, TSSK2(h) (Homo sapiens, UniProt Q96PF2)
T4 sequence (Q96PF2 1-358): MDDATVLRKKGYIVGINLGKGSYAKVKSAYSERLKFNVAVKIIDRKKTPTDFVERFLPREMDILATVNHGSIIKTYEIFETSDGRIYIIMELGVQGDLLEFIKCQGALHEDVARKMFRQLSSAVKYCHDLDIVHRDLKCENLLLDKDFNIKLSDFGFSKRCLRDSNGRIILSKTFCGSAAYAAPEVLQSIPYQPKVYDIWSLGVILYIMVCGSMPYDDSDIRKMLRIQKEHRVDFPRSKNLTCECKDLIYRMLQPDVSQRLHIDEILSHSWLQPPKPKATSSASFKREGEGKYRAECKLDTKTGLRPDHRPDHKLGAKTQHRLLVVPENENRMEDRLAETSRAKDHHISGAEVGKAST
In short: as §1

[7] = read-out: Residual activity (%) Spautin-1 5aa
[8] = read-out: Residual activity (%) 5as
[9] = read-out: Residual activity (%) 5at
[10] = read-out: Residual activity (%) 5ay

## Fc1ccc(CNc2ncnc3ccc(F)cc23)cc1 [5aa, 6-Fluoro-N-(4-fluorobenzyl)-4-Quinazolinamine]
[1]; [7]
  remaining activity at 10 µM: 94%
[2]; [7]
  remaining activity at 10 µM: 90%
[3]; [7]
  remaining activity at 10 µM: 92%
[4]; [7]
  remaining activity at 10 µM: 104%
[5]; [7]
  remaining activity at 10 µM: 109%
[6]; [7]
  remaining activity at 10 µM: 101%

## Fc1ccc(CCNc2ncnc3ccc(F)cc23)cc1 [5as, 6-Fluoro-N-[2-(4-Fluorophenyl)Ethyl]-4-Quinazolinamine]
[1]; [8]
  remaining activity at 10 µM: 78%
[2]; [8]
  remaining activity at 10 µM: 87%
[3]; [8]
  remaining activity at 10 µM: 81%
[4]; [8]
  remaining activity at 10 µM: 85%
[5]; [8]
  remaining activity at 10 µM: 88%
[6]; [8]
  remaining activity at 10 µM: 97%

## Fc1ccc2ncnc(NCCc3ccc(Cl)cc3)c2c1 [5at, N-[2-(4-Chlorophenyl)Ethyl]-6-Fluoro-4-Quinazolinamine]
[1]; [9]
  remaining activity at 10 µM: 82%
[2]; [9]
  remaining activity at 10 µM: 74%
[3]; [9]
  remaining activity at 10 µM: 90%
[4]; [9]
  remaining activity at 10 µM: 93%
[5]; [9]
  remaining activity at 10 µM: 87%
[6]; [9]
  remaining activity at 10 µM: 103%

## COc1ccc2ncnc(Nc3cccc(F)c3)c2c1 [5ay, N-(3-Fluorophenyl)-6-Methoxy-4-Quinazolinamine]
[1]; [10]
  remaining activity at 10 µM: 77%
[2]; [10]
  remaining activity at 10 µM: 65%
[3]; [10]
  remaining activity at 10 µM: 66%
[4]; [10]
  remaining activity at 10 µM: 96%
[5]; [10]
  remaining activity at 10 µM: 60%
[6]; [10]
  remaining activity at 10 µM: 103%
